# “And” between values parts separate entries of the source, which are not always exact repeats. Equal values may be shown once.
# Experiments:
# acetylcholinesterase = experiment: Bi-enzyme electrode of tyrosinase and acetylcholinesterase: current response to substrate; assay type: biochemical; conditions: for Average sensitivity: tyrosinase/acetylcholinesterase electrode
# tyrosinase [1] = assay type: biochemical; conditions: for Average sensitivity (control experiments): PLL-Tyr bilayers without an esterase layer
# butyrylcholinesterase = experiment: Bi-enzyme electrode of tyrosinase and butyrylcholinesterase: current response to substrate; assay type: biochemical
# NEST = molecular target: T1, NEST (Homo sapiens, UniProt Q8IY17); experiment: NEST biosensor: amperometric response to phenyl valerate; assay type: biochemical; conditions: for Average sensitivity: tyrosinase/NEST electrode
# T1 construct: recombinant esterase domain of NTE (NEST) of the present invention comprising amino acid residues 727-1216 of NTE; histidine tag; made in house; host or cells: E. coli BL21(DE3), pET-21b vector
# T1 sequence (Q8IY17 775-1264): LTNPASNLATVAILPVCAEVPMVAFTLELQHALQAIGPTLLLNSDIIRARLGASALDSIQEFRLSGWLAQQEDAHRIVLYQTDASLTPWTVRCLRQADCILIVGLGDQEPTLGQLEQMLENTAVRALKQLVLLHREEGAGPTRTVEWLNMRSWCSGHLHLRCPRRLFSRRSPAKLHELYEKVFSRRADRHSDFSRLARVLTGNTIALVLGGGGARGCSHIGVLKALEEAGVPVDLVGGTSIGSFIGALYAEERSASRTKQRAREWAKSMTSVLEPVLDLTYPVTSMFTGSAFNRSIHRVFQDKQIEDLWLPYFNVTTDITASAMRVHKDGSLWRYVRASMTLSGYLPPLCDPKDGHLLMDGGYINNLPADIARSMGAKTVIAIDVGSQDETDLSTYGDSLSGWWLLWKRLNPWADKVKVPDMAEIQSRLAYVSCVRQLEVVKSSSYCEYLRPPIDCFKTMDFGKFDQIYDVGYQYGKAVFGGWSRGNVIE
# tyrosinase [2] = assay type: biochemical; conditions: NEST biosensor, 0.1 M phosphate buffer pH 7.0, −0.1 V
# tyrosinase [3] = molecular target: tyrosinase (Agaricus bisporus, UniProt C7FF04); conditions: read-out: apparent Michaelis constant Km^app; cited from earlier work
# tyrosinase (Agaricus bisporus, UniProt C7FF04), sequence (C7FF04 1-392): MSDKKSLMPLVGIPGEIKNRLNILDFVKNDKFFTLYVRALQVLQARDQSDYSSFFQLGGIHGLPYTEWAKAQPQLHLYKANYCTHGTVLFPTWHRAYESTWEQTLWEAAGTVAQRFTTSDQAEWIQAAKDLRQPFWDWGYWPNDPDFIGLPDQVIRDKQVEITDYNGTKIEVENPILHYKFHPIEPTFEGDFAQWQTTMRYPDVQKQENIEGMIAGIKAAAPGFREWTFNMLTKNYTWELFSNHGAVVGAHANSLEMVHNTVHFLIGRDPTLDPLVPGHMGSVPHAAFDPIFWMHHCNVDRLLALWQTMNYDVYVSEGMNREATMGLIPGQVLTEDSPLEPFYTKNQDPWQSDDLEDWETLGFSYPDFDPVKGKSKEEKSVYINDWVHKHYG
# [4] = molecular target: NEST (recombinant esterase domain of NTE) (Homo sapiens, UniProt Q8IY17); assay type: biochemical
# Alkaline phosphatase = experiment: Bi-enzyme electrode of tyrosinase and alkaline phosphatase: current response to substrate; assay type: biochemical; conditions: Table 1-2 lower part
smiles,measurement,setting,value
"CC(=O)Oc1ccccc1 [Phenyl acetate, phenyl acetate]",Average sensitivity,acetylcholinesterase; Table 1-2 lower part,180 ± 8 nAμM^−1cm^−2
same,Average sensitivity,acetylcholinesterase; Table 1-2 upper part,180 ± 25 nAμM^−1cm^−2
same,Average sensitivity (control experiments),tyrosinase [1],0.4 nAμM^−1cm^−2
"CCCCC(=O)Oc1ccccc1 [Phenyl valerate, phenyl valerate]",Average sensitivity,butyrylcholinesterase; Table 1-2 lower part,70 ± 5 nAμM^−1cm^−2
same,Average sensitivity,butyrylcholinesterase; Table 1-2 upper part,25 ± 10 nAμM^−1cm^−2
same,rise in current with substrate,acetylcholinesterase; used as substrate instead of phenyl acetate,no significant rise in current
same,concentration at which response reached saturation,"NEST; 0.1 M phosphate buffer, pH 7.0, −0.1 V vs Ag/AgCl",approximately 30 μM
same,Average sensitivity,NEST; Table 1-2 lower part,88 ± 6 nAμM^−1cm^−2
same,Average sensitivity,NEST; Table 1-2 upper part,87 ± 8 nAμM^−1cm^−2
same,mean current,"NEST; phenyl valerate 4 μM, n=10 electrodes",approximately 348 nA cm^−2
same,limit of detection,NEST; signal-to-noise ratio of three,0.5 µM
same,Average sensitivity (control experiments),tyrosinase [1],0.5 nAμM^−1cm^−2 and 0.3 nAμM^−1cm^−2
same,rise in steady state current on addition of substrate,tyrosinase [1]; electrode with poly-L-lysine and tyrosinase bilayers without NEST,relatively very small rise in steady state current
Oc1ccccc1 [phenol],Average sensitivity,tyrosinase [2],~410±30 nAμM^−1 cm^−2
same,Km,tyrosinase [3],~250 µM
"O=S(=O)(F)Cc1ccccc1 [PMSF, phenylmethylsulfonyl fluoride]",drop in current after addition of NEST inhibitor (dose dependence),[4],dose-dependent response
Oc1ccccc1O [catechol],sensitivity,tyrosinase [2],2.5±0.1 μAμM^−1 cm^−2
same,Km,tyrosinase [3],~220 µM
O=P(O)(O)Oc1ccccc1 [Phenyl phosphate],Average sensitivity,Alkaline phosphatase,236 ± 10 nAμM^−1cm^−2
same,Average sensitivity (control experiments),tyrosinase [1],0.3 nAμM^−1cm^−2

# From patent publication US8623196B2 (priority 2007, dated 2014)
